Laboratory results from ChEMBL document CHEMBL5365500, “Development and Antibacterial Properties of 4-[4-(Anilinomethyl)-3-phenylpyrazol-1-yl]benzoic Acid Derivatives as Fatty Acid Biosynthesis Inhibitors” (J Med Chem, 2023).
In brackets after ≈: the same amount, converted by molar mass.

Tests used:
Staphylococcus aureus [1] = assay: Antimicrobial activity against Staphylococcus aureus ATCC 25923 assessed as inhibition of visible growth measured after 20 to 24 hrs incubation by CLSI method; type: functional; settings: time 20-24 hrs
Staphylococcus aureus [2] = assay: Antimicrobial activity against antibiotic-resistant Staphylococcus aureus ATCC BAA-2312 assessed as inhibition of visible growth measured after 20 to 24 hrs incubation by CLSI method; type: functional; settings: time 20-24 hrs
Staphylococcus aureus [3] = assay: Antimicrobial activity against antibiotic-resistant Staphylococcus aureus ATCC 33591 assessed as inhibition of visible growth measured after 20 to 24 hrs incubation by CLSI method; type: functional; settings: time 20-24 hrs
Staphylococcus aureus [4] = assay: Antimicrobial activity against antibiotic-resistant Staphylococcus aureus ATCC 33592 assessed as inhibition of visible growth measured after 20 to 24 hrs incubation by CLSI method; type: functional; settings: time 20-24 hrs
Staphylococcus aureus [5] = assay: Antimicrobial activity against antibiotic-resistant Staphylococcus aureus ATCC 700699 assessed as inhibition of visible growth measured after 20 to 24 hrs incubation by CLSI method; type: functional; settings: time 20-24 hrs
[6] = test system: Staphylococcus epidermidis; assay: Antimicrobial activity against antibiotic-resistant Staphylococcus epidermidis ATCC 700296 assessed as inhibition of visible growth measured after 20 to 24 hrs incubation by CLSI method; type: functional; settings: time 20-24 hrs
Enterococcus faecalis [7] = assay: Antimicrobial activity against antibiotic-susceptible Enterococcus faecalis ATCC 29212 assessed as inhibition of visible growth measured after 20 to 24 hrs incubation by CLSI method; type: functional; settings: time 20-24 hrs
Enterococcus faecalis [8] = assay: Antimicrobial activity against antibiotic-resistant Enterococcus faecalis ATCC 51299 assessed as inhibition of visible growth measured after 20 to 24 hrs incubation by CLSI method; type: functional; settings: time 20-24 hrs
Enterococcus faecium = assay: Antimicrobial activity against antibiotic-resistant Enterococcus faecium ATCC 700221 assessed as inhibition of visible growth measured after 20 to 24 hrs incubation by CLSI method; type: functional; settings: time 20-24 hrs
Bacillus subtilis = assay: Antimicrobial activity against antibiotic-resistant Bacillus subtilis ATCC 6623 assessed as inhibition of visible growth measured after 20 to 24 hrs incubation by CLSI method; type: functional; settings: time 20-24 hrs
HEK293 = assay: Cytotoxicity against human HEK293 cells assessed as cell viability measured after 24 hrs by resazurin assay; type: toxicity, cell-based
Staphylococcus aureus [9] = assay: In vivo antimicrobial activity against Staphylococcus aureus USA300 infected in Caenorhabditis elegans AU37 nematodes assessed as viability of nematodes incubated for 5 days by susceptibility test; type: functional; settings: USA300, 120 h, time 5 day
Staphylococcus aureus [10] = assay: In vivo antimicrobial activity against Staphylococcus aureus Newman infected in Caenorhabditis elegans AU37 nematodes assessed as viability of nematodes incubated for 5 days by susceptibility test; type: functional; settings: 120 h, time 5 day
Staphylococcus aureus [11] = assay: In vivo antimicrobial activity against Staphylococcus aureus UAMS-1 infected in Caenorhabditis elegans AU37 nematodes assessed as viability of nematodes incubated for 5 days by susceptibility test; type: functional; settings: UAMS-1, 120 h, time 5 day

Compound | MIC (Staphylococcus aureus [1]) | MIC (Staphylococcus aureus [2]) | MIC (Staphylococcus aureus [3]) | MIC (Staphylococcus aureus [4]) | MIC (Staphylococcus aureus [5]) | MIC [6] | MIC (Enterococcus faecalis [7]) | MIC (Enterococcus faecalis [8]) | MIC (Enterococcus faecium) | MIC (Bacillus subtilis) | IC50 (HEK293) | MIC (Staphylococcus aureus [9]) | MIC (Staphylococcus aureus [10]) | MIC (Staphylococcus aureus [11])
O=C(O)c1ccc(-n2cc(CNc3cc(Cl)cc(C(F)(F)F)c3)c(-c3ccc(F)cc3)n2)cc1 | 4 µg/mL (≈ 8.17 µM) | 4 µg/mL (≈ 8.17 µM) | 2 µg/mL (≈ 4.08 µM) | 4 µg/mL (≈ 8.17 µM) | 2 µg/mL (≈ 4.08 µM) | 8 µg/mL (≈ 16.3 µM) | 16 µg/mL (≈ 32.7 µM) | 16 µg/mL (≈ 32.7 µM) | 4 µg/mL (≈ 8.17 µM) | 4 µg/mL (≈ 8.17 µM) | – | – | – | –
O=C(O)c1ccc(-n2cc(CNc3ccc(F)cc3)c(-c3ccc(F)cc3)n2)cc1 | 16 µg/mL (≈ 39.5 µM) | 32 µg/mL (≈ 78.9 µM) | 16 µg/mL (≈ 39.5 µM) | 16 µg/mL (≈ 39.5 µM) | 16 µg/mL (≈ 39.5 µM) | 32 µg/mL (≈ 78.9 µM) | > 32 µg/mL | > 32 µg/mL | > 32 µg/mL | 16 µg/mL (≈ 39.5 µM) | – | – | – | –
O=C(O)c1ccc(-n2cc(CNc3ccccc3)c(-c3ccc(F)c(F)c3)n2)cc1 | 16 µg/mL (≈ 39.5 µM) | 32 µg/mL (≈ 78.9 µM) | 16 µg/mL (≈ 39.5 µM) | 32 µg/mL (≈ 78.9 µM) | 32 µg/mL (≈ 78.9 µM) | 16 µg/mL (≈ 39.5 µM) | > 32 µg/mL | > 32 µg/mL | 32 µg/mL (≈ 78.9 µM) | 8 µg/mL (≈ 19.7 µM) | – | – | – | –
O=C(O)c1ccc(-n2cc(CNc3ccc(Cl)c(C(F)(F)F)c3)c(-c3ccc(F)cc3)n2)cc1 | 2 µg/mL (≈ 4.08 µM) | 2 µg/mL (≈ 4.08 µM) | 1 µg/mL (≈ 2.04 µM) | 2 µg/mL (≈ 4.08 µM) | 1 µg/mL (≈ 2.04 µM) | 4 µg/mL (≈ 8.17 µM) | 8 µg/mL (≈ 16.3 µM) | 8 µg/mL (≈ 16.3 µM) | 2 µg/mL (≈ 4.08 µM) | 1 µg/mL (≈ 2.04 µM) | – | – | – | –
O=C(O)c1ccc(-n2cc(CNc3ccc(Cl)cc3)c(-c3ccc(F)cc3)n2)cc1 | > 32 µg/mL | 32 µg/mL (≈ 75.9 µM) | 4 µg/mL (≈ 9.48 µM) | > 32 µg/mL | 8 µg/mL (≈ 19 µM) | > 32 µg/mL | > 32 µg/mL | > 32 µg/mL | > 32 µg/mL | 4 µg/mL (≈ 9.48 µM) | – | – | – | –
O=C(O)c1ccc(-n2cc(CNc3ccc(F)c(F)c3)c(-c3ccc(F)cc3)n2)cc1 | > 32 µg/mL | > 32 µg/mL | > 32 µg/mL | > 32 µg/mL | 16 µg/mL (≈ 37.8 µM) | > 32 µg/mL | > 32 µg/mL | > 32 µg/mL | > 32 µg/mL | 16 µg/mL (≈ 37.8 µM) | – | – | – | –
O=C(O)c1ccc(-n2cc(CNc3ccc(F)c(Cl)c3)c(-c3ccc(F)cc3)n2)cc1 | 8 µg/mL (≈ 18.2 µM) | 4 µg/mL (≈ 9.09 µM) | 2 µg/mL (≈ 4.55 µM) | 8 µg/mL (≈ 18.2 µM) | 8 µg/mL (≈ 18.2 µM) | 32 µg/mL (≈ 72.8 µM) | > 32 µg/mL | > 32 µg/mL | 16 µg/mL (≈ 36.4 µM) | 2 µg/mL (≈ 4.55 µM) | – | – | – | –
O=C(O)c1ccc(-n2cc(CNc3cccc(Br)c3)c(-c3ccc(F)cc3)n2)cc1 | 8 µg/mL (≈ 17.2 µM) | 8 µg/mL (≈ 17.2 µM) | 4 µg/mL (≈ 8.58 µM) | 16 µg/mL (≈ 34.3 µM) | 8 µg/mL (≈ 17.2 µM) | 16 µg/mL (≈ 34.3 µM) | 32 µg/mL (≈ 68.6 µM) | 32 µg/mL (≈ 68.6 µM) | 16 µg/mL (≈ 34.3 µM) | 4 µg/mL (≈ 8.58 µM) | – | – | – | –
O=C(O)c1ccc(-n2cc(CNc3ccc(F)c(Cl)c3F)c(-c3ccc(F)c(F)c3)n2)cc1 | 4 µg/mL (≈ 8.41 µM) | 4 µg/mL (≈ 8.41 µM) | 2 µg/mL (≈ 4.2 µM) | 4 µg/mL (≈ 8.41 µM) | 4 µg/mL (≈ 8.41 µM) | 8 µg/mL (≈ 16.8 µM) | 16 µg/mL (≈ 33.6 µM) | > 32 µg/mL | 4 µg/mL (≈ 8.41 µM) | 1 µg/mL (≈ 2.1 µM) | – | – | – | –
O=C(O)c1ccc(-n2cc(CNc3ccc(Br)c(Cl)c3)c(-c3ccc(F)cc3)n2)cc1 | 1 µg/mL (≈ 2 µM) | 1 µg/mL (≈ 2 µM) | 1 µg/mL (≈ 2 µM) | 1 µg/mL (≈ 2 µM) | 2 µg/mL (≈ 3.99 µM) | 4 µg/mL (≈ 7.99 µM) | 8 µg/mL (≈ 16 µM) | 8 µg/mL (≈ 16 µM) | 4 µg/mL (≈ 7.99 µM) | 0.5 µg/mL (≈ 0.998 µM) | 20 µg/mL (≈ 39.9 µM) | 2 µg/mL (≈ 3.99 µM) | 1 µg/mL (≈ 2 µM) | 2 µg/mL (≈ 3.99 µM)
O=C(O)c1ccc(-n2cc(CNc3ccc(Br)c(C(F)(F)F)c3)c(-c3ccc(F)cc3)n2)cc1 | 2 µg/mL (≈ 3.74 µM) | 1 µg/mL (≈ 1.87 µM) | 0.5 µg/mL (≈ 0.936 µM) | 2 µg/mL (≈ 3.74 µM) | 1 µg/mL (≈ 1.87 µM) | 4 µg/mL (≈ 7.49 µM) | 4 µg/mL (≈ 7.49 µM) | 4 µg/mL (≈ 7.49 µM) | 2 µg/mL (≈ 3.74 µM) | 1 µg/mL (≈ 1.87 µM) | – | – | – | –
